Results on seven compounds are retold here after patent US8546381B2, “Bridged heterocyclic compounds and methods of use” (Medivation Technologies, Inc., priority 2008, dated 2013).

In assay [1] the target is T1, human recombinant adrenergic α1D receptor (Homo sapiens, UniProt P25100).
T1 construct: expressed in transfected cells; host or cells: HEK-293 cells
T1 sequence (P25100 1-572): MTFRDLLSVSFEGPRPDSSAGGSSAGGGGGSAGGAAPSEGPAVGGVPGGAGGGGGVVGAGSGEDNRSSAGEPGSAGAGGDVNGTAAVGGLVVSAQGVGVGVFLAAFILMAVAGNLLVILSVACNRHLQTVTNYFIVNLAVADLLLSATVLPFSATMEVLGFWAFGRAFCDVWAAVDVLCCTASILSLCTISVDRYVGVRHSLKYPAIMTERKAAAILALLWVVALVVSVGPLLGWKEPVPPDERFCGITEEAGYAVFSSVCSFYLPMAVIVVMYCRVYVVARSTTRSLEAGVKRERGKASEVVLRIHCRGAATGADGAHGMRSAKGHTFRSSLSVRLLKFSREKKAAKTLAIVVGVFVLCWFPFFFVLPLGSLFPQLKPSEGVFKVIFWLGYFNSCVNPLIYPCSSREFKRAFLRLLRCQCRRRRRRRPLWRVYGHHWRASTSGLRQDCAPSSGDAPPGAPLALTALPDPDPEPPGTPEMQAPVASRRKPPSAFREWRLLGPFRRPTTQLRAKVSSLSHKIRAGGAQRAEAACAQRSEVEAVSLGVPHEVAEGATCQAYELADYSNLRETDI
Description: Adrenergic α1D radioligand binding ([3H]Prozosin). The following applies: 1 μM; read-out: Adrenergic α1D, inhibition of ligand binding (1 μM). An outline of the steps: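 Membranes of HEK-293 cells expressing human α1D in 50 mM Tris-HCl pH 7.4, incubated 60 min at 25 °C with 0.6 nM [3H]prazosin; nonspecific binding with 10 μM phentolamine.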

Assay [2] addresses T2, human recombinant adrenergic α2B receptor (Homo sapiens, UniProt P18089).
T2 construct: expressed in transfected cells; host or cells: CHO-K1 cells
T2 sequence (P18089 1-450): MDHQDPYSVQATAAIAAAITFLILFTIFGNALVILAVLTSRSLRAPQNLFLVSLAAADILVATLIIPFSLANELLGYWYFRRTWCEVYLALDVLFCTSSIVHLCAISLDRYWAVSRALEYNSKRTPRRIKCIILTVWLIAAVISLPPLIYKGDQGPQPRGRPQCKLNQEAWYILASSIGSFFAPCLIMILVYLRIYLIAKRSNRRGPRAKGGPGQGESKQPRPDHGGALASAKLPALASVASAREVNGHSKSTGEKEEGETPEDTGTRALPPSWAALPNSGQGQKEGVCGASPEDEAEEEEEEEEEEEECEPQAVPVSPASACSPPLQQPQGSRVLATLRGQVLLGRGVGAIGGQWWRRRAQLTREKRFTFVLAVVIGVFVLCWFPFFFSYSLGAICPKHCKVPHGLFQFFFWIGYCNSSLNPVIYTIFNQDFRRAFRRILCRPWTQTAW
Description: Adrenergic α2B radioligand binding ([3H]Rauwolscine). To be noted: 1 μM; read-out: Adrenergic α2B, inhibition of ligand binding (1 μM).

Assay [3] addresses T3, human recombinant dopamine D2L receptor (Homo sapiens, UniProt P14416).
T3 construct: expressed in transfected cells; host or cells: CHO cells
Description: Dopamine D2L radioligand binding ([3H]Spiperone). The following applies: read-out: Dopamine (1 μM) D2L, inhibition of ligand binding. An outline of the steps:
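Receptor expressed in CHO cells, in Tris-HCl pH 7.4 buffer with 150 mM NaCl. Binding used 0.16 nM [3H]spiperone for 120 min at 25 °C, with non-specific binding defined by 10 μM haloperidol and filtration counting.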

Assay [4] has as its target T4, human recombinant serotonin (5-Hydroxytryptamine) 5-HT6 receptor (Homo sapiens, UniProt P50406).
T4 construct: expressed in transfected cells; host or cells: human HeLa cells
Description: Serotonin 5-HT6 radioligand binding ([3H]LSD). The following applies: read-out: Serotonin 5-HT6, inhibition of ligand binding (1 μM). An outline of the steps: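 Membranes of HeLa cells expressing human 5-HT6 were incubated with 1.5 nM [3H]LSD in Tris-HCl buffer pH 7.4 for 120 min at 37° C, with non-specific binding defined by 5 μM 5-HT.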

T3 sequence (P14416 whole entry): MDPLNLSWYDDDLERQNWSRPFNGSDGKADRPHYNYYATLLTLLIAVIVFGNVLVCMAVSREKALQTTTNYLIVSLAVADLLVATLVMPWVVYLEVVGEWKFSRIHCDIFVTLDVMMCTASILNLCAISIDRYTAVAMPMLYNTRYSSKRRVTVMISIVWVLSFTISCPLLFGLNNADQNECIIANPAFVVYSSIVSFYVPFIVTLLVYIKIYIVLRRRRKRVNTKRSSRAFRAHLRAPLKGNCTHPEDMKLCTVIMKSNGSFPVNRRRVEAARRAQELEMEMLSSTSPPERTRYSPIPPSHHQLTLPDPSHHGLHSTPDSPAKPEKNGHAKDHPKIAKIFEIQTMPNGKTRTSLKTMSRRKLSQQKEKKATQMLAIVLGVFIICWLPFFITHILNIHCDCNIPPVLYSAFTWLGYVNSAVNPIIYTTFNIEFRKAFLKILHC
T4 sequence (P50406 whole entry): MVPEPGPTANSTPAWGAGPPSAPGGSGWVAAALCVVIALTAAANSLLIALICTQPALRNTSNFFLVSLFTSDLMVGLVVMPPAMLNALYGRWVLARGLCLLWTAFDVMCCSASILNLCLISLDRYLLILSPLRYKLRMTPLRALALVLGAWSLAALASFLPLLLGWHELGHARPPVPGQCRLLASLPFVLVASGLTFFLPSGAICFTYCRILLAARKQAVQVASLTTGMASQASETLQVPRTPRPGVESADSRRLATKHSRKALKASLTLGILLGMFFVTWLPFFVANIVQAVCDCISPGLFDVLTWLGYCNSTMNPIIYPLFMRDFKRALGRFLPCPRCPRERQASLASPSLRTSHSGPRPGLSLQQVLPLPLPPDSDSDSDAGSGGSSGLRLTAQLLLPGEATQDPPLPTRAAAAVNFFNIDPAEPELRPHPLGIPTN

Turning to `Cc1ccc(C#Cn2c3c(c4cc(Cl)ccc42)C2CCC(C3)N2C)cn1` (stereo not shown) [Compound 139], the inhibition at 1 µM in assay [1] was 65%; in assay [2] it was 115%; in assay [3], -4%; in assay [4], 26%.
On to `Cc1ccc2c(c1)c1c(n2C#Cc2ccc(F)cc2)CC2CCC1N2C` (stereo not shown) [Compound 141], for which the inhibition at 1 µM is 20% in assay [1], 95% in assay [2], -4% in assay [3] and 21% in assay [4].
On to `CN1C2CCC1c1c(n(C#Cc3ccc(Cl)cc3)c3ccc(Cl)cc13)C2` (stereo not shown) [Compound 142], for which the inhibition at 1 µM stood at 27% in assay [1], 95% in assay [2], 0% in assay [3] and 36% in assay [4].
As for `COc1ccc(C(C)(O)Cn2c3c(c4cc(Cl)ccc42)C2CCC(C3)N2C)cc1F` (stereo not shown) [Compound 160], the inhibition at 1 µM is 0% in assay [1], 80% in assay [2], 7% in assay [3] and 29% in assay [4].
Take `COc1ccc(C(C)(O)Cn2c3c(c4cc(C)ccc42)C2CCC(C3)N2C)cc1F` (stereo not shown) [Compound 161]: the inhibition at 1 µM in assay [1] stood at 30%; in assay [2] it was 95%; in assay [3] it was 12%; in assay [4], 25%.
In the case of `Cc1ccc2c(c1)c1c(n2C(=O)Cc2ccc(Cl)cc2)CC2CCC1N2C` (stereo not shown) [Compound 162], the inhibition at 1 µM stood at 34% in assay [1], 83% in assay [2], 2% in assay [3] and 23% in assay [4].
For `C/C(=C\n1c2c(c3cc(C)ccc31)C1CCC(C2)N1C)c1ccc(Cl)cc1Cl` (stereo not shown) [Compound 163], the inhibition at 1 µM in assay [1] is 53%; in assay [2], 104%; in assay [3], -16%; in assay [4] it was 36%.

Broadly, the inhibition is the drop in the measured response relative to a control, in per cent.
